The source of these data is ChEMBL document CHEMBL1124732, “Synthesis, conformation, and immunosuppressive activities of three analogues of cyclosporin A modified in the 1-position” (1990).

The test is described as follows: Relative immunosuppressive activity tested against inhibition of concanavalin A stimulated thymocytes. It counts as functional. The arrangement: scale not given: the % may be the effect or the level left.

As to `CC#CC[C@@H](C)[C@@H](O)[C@H]1C(=O)N[C@@H](CC)C(=O)N(C)CC(=O)N(C)[C@@H](CC(C)C)C(=O)N[C@@H](C(C)C)C(=O)N(C)[C@@H](CC(C)C)C(=O)N[C@@H](C)C(=O)N[C@H](C)C(=O)N(C)[C@@H](CC(C)C)C(=O)N(C)[C@@H](CC(C)C)C(=O)N(C)[C@@H](C(C)C)C(=O)N1C`, the Activity stood at 10%.
